Test results as given in article PMC9178925 (Biochemical pharmacology, 2022).
Where “and” joins values, the source holds several entries; their conditions need not be identical. Equal values may be shown once.

Key:
[1] = target: T1, α1β2γ2L GABAAR (Rattus norvegicus, UniProt P62813+P63138); assay: Functional competition assay
[2] = target: T1, α1β2γ2L GABAAR; assay: Two-electrode voltage clamp, concentration-response and mechanistic; assay type: cell-based, rat (β2 rat or human)
[3] = target: α1(Q241L)β2γ2L GABAAR (Rattus norvegicus, UniProt P62813+P63138, Q268L); assay: Two-electrode voltage clamp, potentiation of low GABA currents in oocytes; assay type: cell-based, rat (β2 rat or human); conditions: 30 μM GABA alone
[4] = target: α1β2(N265S)γ2S GABAAR (Rattus norvegicus, UniProt P62813+P63138, N289S); assay: as above; assay type: cell-based, rat (β2 rat or human); conditions: 10 μM ZnCl2 pre-applied 60 s then co-applied with GABA

Structure (SMILES): CC(=O)[C@H]1CC[C@H]2[C@@H]3CC[C@@H]4C[C@H](O)CC[C@]4(C)[C@H]3CC[C@]12C [pregnanolone, 1-[(1S,3aS,3bR,5aR,7R,9aS,9bS,11aS)-7-Hydroxy-9a,11a-dimethylhexadecahydro-1H-cyclopenta[a]phenanthren-1-yl]ethan-1-one, reference compound]
- PA of peak response ([1]; 2 μM pregnanolone alone): 0.005 ± 0.002

Structure (SMILES): NCCCC(=O)O [GABA, γ-aminobutyric acid, reference compound]
- PA (probability of being in the active state) of peak response ([2]; 2 μM GABA alone, normalized to 1 mM GABA + 50 μM propofol): 0.18 and 0.17 ± 0.02 and 0.15 ± 0.02
- PA of peak response ([2]; 10 μM GABA alone, n = 6 oocytes): 0.26 ± 0.03
- PA (probability of being in the active state) of peak response [3]: 0.19 ± 0.05
- PA of peak response ([1]; 0.05 μM GABA alone): 0.004 ± 0.001
- PA of peak response ([1]; 0.75 μM GABA alone): 0.051 ± 0.018
- mean PA of the peak response ([1]; 0.2–0.5 μM GABA alone, n = 7 oocytes): 0.009 ± 0.008
- PA of peak response ([1]; 1–2 μM GABA alone): 0.030 ± 0.007

Structure (SMILES): [Cl-].[Cl-].[Zn+2] [ZnCl2]
- change of GABA responses (positive = potentiation) [4]: +11 ± 1%
